Assay results taken from patent publication US6214838A, “Thienodipyridine derivatives, production and use thereof” (Takeda Chemical Industries, Ltd., priority 1998, dated 2001).

What was measured:
[1] = Stability Against Metabolism by Liver Microsome; type: in vitro ADME; settings: dog liver microsome, NADPH-producing system, phosphate buffer pH 7.4, 37° C.; n=2, mean
Procedure: Stability Against Metabolism by Liver Microsome:
A dog liver microsome was prepared by a standard method. In a phosphate buffer (pH 7.4), a test substance, a liver microsome and NADPH-producing system [0.5 mM, β-NADP (NADP: nicotinamide adenine dinucleotide phosphate), 1 mM magnesium chloride, 5 mM glucose-6-phosphate, 150units/ml glucose-6-phosphate dehydrogenase (each as final concentration in reaction system)] were mixed and incubated at 37° C. The concentration of the test substance after the discontinuation of the reaction was determined by high pressure liquid chromatography to obtain % residue (n=2, mean).

Rat Adjuvant Arthritis = assay: Action Against Rat Adjuvant Arthritis (paw swelling suppression); type: in vivo, rat (male Lewis); settings: 3.13 mg/kg once daily for 14 days, suspension in 0.5% methyl cellulose; left hind paw volume at day 14; N=6; **: p < 0.05 vs control (Dunnett's test)

## COc1ccc(-c2c(Cl)c(CN3C(=O)CCC3=O)nc3sc4c(c23)CCNC4)cc1OC [Example 2, 3-chloro-4-(3,4-dimethoxyphenyl)-5,6,7,8-tetrahydro-2-(succinimidomethyl)thieno[2,3-b:5,4-c']dipyridine]
[1]
  Residue (%): 87.8%
Rat Adjuvant Arthritis
  Swelling suppression rate (%): 92%

## COc1ccc(-c2c(Br)c(CN3C(=O)CCC3=O)nc3sc4c(c23)CCNC4)cc1 [Example 4, 3-bromo-5,6,7,8-tetrahydro-4-(4-methoxyphenyl)-2-(succinimidomethyl)thieno[2,3-b:5,4-c']dipyridine]
Rat Adjuvant Arthritis
  Swelling suppression rate (%): 85%

## O=C1CCC(=O)N1Cc1nc2sc3c(c2c(-c2ccc(O)cc2)c1Cl)CCNC3 [Example 15, 3-chloro-4-(4-hydroxyphenyl)-5,6,7,8-tetrahydro-2-(succinimidomethyl)thieno[2,3-b:5,4-c']dipyridine]
[1]
  Residue (%): 96.3%

## CCOc1ccc(-c2c(Cl)c(CN3C(=O)CCC3=O)nc3sc4c(c23)CCNC4)cc1 [Example 11, 3-chloro-4-(4-ethoxyphenyl)-5,6,7,8-tetrahydro-2-(succinimidomethyl)thieno[2,3-b:5,4-c']dipyridine]
[1]
  Residue (%): 94.1%
Rat Adjuvant Arthritis
  Swelling suppression rate (%): 98%

## COc1ccc(-c2c(Cl)c(CN3C(=O)CCC3=O)nc3sc4c(c23)CCNC4)cc1 [Example 1, 3-chloro-5,6,7,8-tetrahydro-4-(4-methoxyphenyl)-2-(succinimidomethyl)thieno[2,3-b:5,4-c']dipyridine]
[1]
  Residue (%): 90.5%
Rat Adjuvant Arthritis
  Swelling suppression rate (%): 94%

## COc1cc(-c2c(Cl)c(CN3C(=O)CCC3=O)nc3sc4c(c23)CCN(C(C)=O)C4)ccc1O [Example 22, 7-acetyl-3-chloro-5,6,7,8-tetrahydro-4-(4-hydroxy-3-methoxyphenyl)-2-(succinimidomethyl)thieno[2,3-b:5,4-c']dipyridine]
Rat Adjuvant Arthritis
  Swelling suppression rate (%): 75%

## COc1ccc(-c2c(Cl)c(CN3C(=O)CCC3=O)nc3sc4c(c23)CCN(C(C)=O)C4)cc1OC [Example 18, 7-acetyl-3-chloro-4-(3,4-dimethoxyphenyl)-5,6,7,8-tetrahydro-2-(succinimidomethyl)thieno[2,3-b:5,4-c']dipyridine]
Rat Adjuvant Arthritis
  Swelling suppression rate (%): 92%
